Test results reported in patent publication US20070185069A1, “Anti-angiogenic activity of 2-methoxyestradiol in combination with anti-cancer agents” (priority 2005, published 2007).
Values joined by “and” are separate entries in the source; they are usually repeats but may differ in a detail not shown here. Equal entries are not always repeated.

Experiments:
CT-26 cells = test: In vitro inhibition of proliferation of CT-26 cells; type: cell-based; details: preliminary in vitro studies
estrogen receptor α = molecular target: T1, estrogen receptor α (Homo sapiens, UniProt P03372); details: LaVallee et al. 2002; cited from earlier work
T1 sequence (P03372 1-595): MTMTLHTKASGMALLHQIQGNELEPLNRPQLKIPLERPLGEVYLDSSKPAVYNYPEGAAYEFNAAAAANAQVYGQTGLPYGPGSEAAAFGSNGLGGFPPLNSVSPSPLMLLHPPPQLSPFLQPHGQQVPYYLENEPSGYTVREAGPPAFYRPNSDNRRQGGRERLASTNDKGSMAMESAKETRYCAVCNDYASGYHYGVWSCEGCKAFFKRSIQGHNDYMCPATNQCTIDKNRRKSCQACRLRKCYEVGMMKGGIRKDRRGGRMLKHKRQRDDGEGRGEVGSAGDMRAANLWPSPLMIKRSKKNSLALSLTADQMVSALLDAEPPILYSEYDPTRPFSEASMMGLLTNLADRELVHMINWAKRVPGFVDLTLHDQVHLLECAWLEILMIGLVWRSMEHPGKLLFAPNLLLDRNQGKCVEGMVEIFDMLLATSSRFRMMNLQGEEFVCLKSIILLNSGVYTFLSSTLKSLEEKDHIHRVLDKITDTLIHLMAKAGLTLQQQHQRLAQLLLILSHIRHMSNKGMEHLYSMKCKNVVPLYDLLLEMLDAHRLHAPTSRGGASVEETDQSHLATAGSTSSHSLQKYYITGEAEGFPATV

[1] = tested on: U87 MG human glioblastoma cells; test: U87 MG proliferation assay (WST-1); type: cell-based; details: U87 MG versus HUVEC
Protocol: (§1) U87 MG human glioblastoma cells were maintained in vitro in DMEM supplemented with 5% FBS, 2 mM glutamine, 1 mM sodium pyruvate, MEM vitamins and NEAA at 37° C. and 5% CO2. HUVEC were maintained in M 200 media. For both HUVEC and U87 MG proliferation assays, cells were plated in a 96 well plate at 5×10^3 cells per well and incubated at 37° C. overnight. At 24 hours, the media was aspirated and 2ME2 was administered to the cells at the following doses: […]. Proliferation was assessed 48 hours after application of drug by WST-1(U87 MG) or BRDU (HUVEC).

H2122 = H2122 tumor model, MST; type: in vivo; details: Paclitaxel, 2ME2 or both combined
estrogen receptor β = estrogen receptor β (Homo sapiens, UniProt Q92731); details: LaVallee et al. 2002; cited from earlier work
U87 MG ectopic tumors [2] = test: Late stage U87 MG glioblastoma xenograft tumor model; type: in vivo, mice; details: for %Δ (Percent change in tumor volume from start of treatment): U87MG model, Temodar, 2ME2 or both combined; for inhibition of tumor growth: study day 28, treatment begun at about 300 mm^3, 2ME2 400 mg/kg p.o., q.d., Temodar 42 mg/kg p.o., q.d.×5
Protocol: In a second preclinical study the effectiveness of 2ME2 alone or in combination with Temodar® in the U87 MG glioblastoma xenograft tumor model was evaluated. Given the effectiveness of Temodar® at the maximally tolerated dose against 100 mm^3 tumor burden, we altered the treatment strategy such that treatment was initiated when mean tumor volume was approximately 300 mm^3. Cohorts of mice received treatment with either vehicle control, 2ME2 400 mg/kg p.o., q.d., Temodar® 42 mg/kg p.o., q.d×5, or 2ME2 400 mg/kg p.o., q.d. combined with Temodar® 42 mg/kg p.o., q.d.×5. Mice treated with the combination of 2ME2 and Temodar® received oral administration in the PM and AM, respectively.

LLC met = LLC met tumor model; type: in vivo; details: 2ME2 or both combined
RPMI-8226 = RPMI-8226 xenograft model of myeloma; type: in vivo; details: RPMI-8226 model; Velcade, 2ME2 or both combined
U87 MG ectopic tumors [3] = test: Early stage U87 MG ectopic tumors, subcutaneous; type: in vivo, Balb/c SCID mice; details: study day 30; for inhibition of tumor growth: treatment begun at about 100 mm^3
Protocol: To assess whether 2ME2 or Temodarg® (Schering Corp. Kenilworth, N.J.) impact tumor growth of U87 MG, we designed the following experiment. Male Balb/c SCID mice were injected subcutaneously with 1×10^6 U87 MG tumor cells.

PC3 = PC3 tumor model, XRT combination; type: in vivo; details: 2ME2 or both combined
in vivo = test: in vivo
Protocol: (§2) 2-methoxyestradiol (2ME2) is an endogenous metabolite of estradiol with antiproliferative, proapoptotic and antiangiogenic activity. […] A new formulation of 2ME2 with enhanced absorption, Panzem® NCD, is currently in clinical trials. In anticipation of Phase 2 clinical trials with Panzem® NCD, tests were conducted to assess its anti-tumor activity as either monotherapy or in combination with cytotoxic agents. In this preclinical study, the effectiveness of 2ME2 alone or with the antimetabolite, 5-Fluorouracil (5-FU) in the CT-26 syngeneic tumor model was evaluated. 5-FU is a well-recognized and commonly used antineoplastic agent used for treatment of colorectal cancer. […] Subsequent to these studies, male BALB/c mice were injected subcutaneously with 1×10^6 CT-26 cells. Starting 7 days after tumor cell inoculation when mean tumor volume was approximately 100 mm^3, cohorts of mice (n=5/group) began treatment with (a) vehicle alone; (b) 2ME@200mg/kg p.o. q.d.; (c) 5-FU 30mg/kg p.o. q.d.×5; (d) or a combination of 5-FU at 30 mg/kg p.o. q.d.×5 with 2ME2 at 50, 100, or 200 mg/kg p.o. q.d. […] Cohorts of mice receiving the combination of 5-FU and 2ME2 had oral administrations in the A.M. (5-FU) and the P.M. (2ME2).

HUVEC = HUVEC proliferation assay (BRDU); type: cell-based; details: 48 hours after application of drug
Protocol: as §1

[4] = tested on: CT-26 syngeneic colon carcinoma; test: CT-26 syngeneic tumor model, subcutaneous; type: in vivo, BALB/c mice
Protocol: as §2

U87MG = U87MG tumor model, CPT-11 combination; type: in vivo; details: CPT-11, 2ME2 or both combined
[5] = tested on: vascular endothelial cell proliferation; details: Ingber et al. 1990; cited from earlier work
[6] = Separate tolerability study of Temodar; parameters: species or system mice; details: mouse, in vivo, po, q.d.×5; read-out: maximally tolerated dose (MTD)
Protocol: Results: On study day 30, the mean tumor volume of the vehicle control animals was approximately 3000 mm^3. […] Using this dose and regimen in this model, Temodar® blocked U87 MG tumor growth by 98% (T/C =0.02).

[7] = CT-26 model (Table 1), 5-FU, 2ME2 or both combined

Sequence of estrogen receptor β (Q92731 whole entry): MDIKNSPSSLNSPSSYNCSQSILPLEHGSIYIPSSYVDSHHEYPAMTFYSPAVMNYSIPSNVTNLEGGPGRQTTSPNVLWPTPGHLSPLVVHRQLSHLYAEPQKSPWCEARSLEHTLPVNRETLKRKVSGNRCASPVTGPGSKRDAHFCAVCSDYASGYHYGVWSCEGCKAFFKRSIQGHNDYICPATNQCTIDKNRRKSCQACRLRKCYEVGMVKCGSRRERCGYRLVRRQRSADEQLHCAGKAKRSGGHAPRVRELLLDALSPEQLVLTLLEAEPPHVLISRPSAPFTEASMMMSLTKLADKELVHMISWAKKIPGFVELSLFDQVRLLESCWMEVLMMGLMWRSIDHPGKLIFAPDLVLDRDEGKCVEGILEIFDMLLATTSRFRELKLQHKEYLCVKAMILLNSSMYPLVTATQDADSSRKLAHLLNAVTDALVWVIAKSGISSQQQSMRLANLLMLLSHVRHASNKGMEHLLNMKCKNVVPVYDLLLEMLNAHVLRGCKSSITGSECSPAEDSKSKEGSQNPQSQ

COc1cc2c(cc1O)CC[C@@H]1[C@@H]2CC[C@]2(C)[C@@H](O)CC[C@@H]12 [2ME2, 2-methoxyestradiol]
IC50 (CT-26 cells): 3000 nM | affinity for estrogen receptor α (estrogen receptor α): low affinity | anti-proliferative dosage on glioblastoma cells relative to dosage with antiangiogenic effect on HUVEC [1]: nearly five times | MST (H2122): 17 days | affinity for estrogen receptor β (estrogen receptor β): low affinity | %Δ (Percent change in tumor volume from start of treatment) (U87 MG ectopic tumors [2]): 333% | inhibition of tumor growth (U87 MG ectopic tumors [2]): 20% | T/C (LLC met; Cisplatin): 0.37 | T/C (LLC met; Paclitaxel): 0.37 | T/C (RPMI-8226): 0.66 | T/C (U87 MG ectopic tumors [3]; 2ME2 200 mg/kg p.o., q.d.): 0.61 | inhibition of tumor growth (U87 MG ectopic tumors [3]; 2ME2 200 mg/kg p.o., q.d.): approximately 40% | T/C (U87 MG ectopic tumors [3]; 2ME2 400 mg/kg p.o., q.d.): 0.61 | inhibition of tumor growth (U87 MG ectopic tumors [3]; 2ME2 400 mg/kg p.o., q.d.): approximately 40% | T − C (Difference in tumor doubling time) (PC3): 0 days | mean changes in body weight as a consequence of treatment (in vivo; CT-26 bearing BALB/c mice): moderate to no change | IC50 (HUVEC): 463 nM | T/C [4, 7]: 0.37 | T/C ([4]; study date 29, agent alone (2ME2 200 mg/kg p.o. q.d.; 5-FU 30 mg/kg p.o. q.d.×5)): 0.79 and 0.51 | %Δ (Percent change in tumor volume from start of treatment) (U87MG): 890%

O=c1[nH]cc(F)c(=O)[nH]1 [5-FU, 5-Fluorouracil]
MTD at 5 days (in vivo; male, mouse, in vivo, po): 30 mg/kg | mean changes in body weight as a consequence of treatment (in vivo; mouse, in vivo): moderate to no change | T/C [4, 7]: 0.38

CO[C@@H]1[C@H](OC(=O)NC(=O)CCl)CC[C@]2(CO2)[C@H]1[C@@]1(C)O[C@@H]1CC=C(C)C [AGM-1470]
half-maximal inhibition of vascular endothelial cell proliferation at lower concentration than tumor cell proliferation [5]: 4 logs

N.N.[Cl][Pt][Cl] [Cisplatin, reference compound]
T/C (LLC met; Cisplatin): 0.19

CC(=O)O[C@H]1C(=O)[C@@]2(C)[C@H]([C@H](OC(=O)c3ccccc3)[C@]3(O)C[C@H](OC(=O)[C@H](O)[C@@H](NC(=O)c4ccccc4)c4ccccc4)C(C)=C1C3(C)C)[C@]1(OC(C)=O)CO[C@@H]1C[C@@H]2O [Paclitaxel, reference compound]
MST (H2122): 24 days | T/C (LLC met; Paclitaxel): 0.38

Cn1nnc2c(C(N)=O)ncn2c1=O [Temodar ®, reference compound]
MTD at 5 days [6]: 42 mg/kg | %Δ (Percent change in tumor volume from start of treatment) (U87 MG ectopic tumors [2]): 266% | inhibition of tumor growth (U87 MG ectopic tumors [2]): 34% | T/C (U87 MG ectopic tumors [3]; Temodar 42 mg/kg p.o., q.d.×5): 0.02 | inhibition of tumor growth (U87 MG ectopic tumors [3]; Temodar 42 mg/kg p.o., q.d.×5): 98%

CC(C)C[C@H](NC(=O)[C@H](Cc1ccccc1)NC(=O)c1cnccn1)B(O)O [Velcade, reference compound]
T/C (RPMI-8226): 0.64
